From PMC11596536, “Unveiling the Anticancer Potential of a New Ciprofloxacin-Chalcone Hybrid as an Inhibitor of Topoisomerases I & II and Apoptotic Inducer” (Molecules, 2024)

Target: T1, Topoisomerase I (Homo sapiens, UniProt P11387)
T1 construct: gene TOP1
T1 sequence (P11387 2-765): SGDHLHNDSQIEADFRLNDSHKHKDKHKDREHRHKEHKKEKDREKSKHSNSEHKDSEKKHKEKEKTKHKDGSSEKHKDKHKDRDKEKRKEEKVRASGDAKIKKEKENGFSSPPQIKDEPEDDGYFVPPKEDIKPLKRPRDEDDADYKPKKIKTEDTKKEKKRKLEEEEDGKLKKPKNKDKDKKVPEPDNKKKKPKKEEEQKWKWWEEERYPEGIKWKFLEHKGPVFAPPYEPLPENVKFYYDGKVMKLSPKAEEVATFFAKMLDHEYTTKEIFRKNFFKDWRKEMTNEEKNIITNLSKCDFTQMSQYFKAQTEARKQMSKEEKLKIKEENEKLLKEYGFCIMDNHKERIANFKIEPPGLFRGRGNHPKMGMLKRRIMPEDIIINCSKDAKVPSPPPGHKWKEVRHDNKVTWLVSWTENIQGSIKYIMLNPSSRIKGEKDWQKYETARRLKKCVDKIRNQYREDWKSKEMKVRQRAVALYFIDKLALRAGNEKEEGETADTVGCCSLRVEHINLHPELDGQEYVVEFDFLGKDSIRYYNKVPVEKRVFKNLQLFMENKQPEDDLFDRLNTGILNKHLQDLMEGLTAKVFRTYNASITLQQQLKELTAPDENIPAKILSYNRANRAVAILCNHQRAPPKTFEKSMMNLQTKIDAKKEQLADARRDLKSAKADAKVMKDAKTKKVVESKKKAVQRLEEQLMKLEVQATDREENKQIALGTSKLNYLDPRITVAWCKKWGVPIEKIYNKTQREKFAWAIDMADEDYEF
Test: Topo I DNA relaxation assay (commercial kit), agarose gel electrophoresis
Assay type: biochemical

IC50: 37.5 µM
Compound: O=C(/C=C/c1ccc(Cl)cc1)c1ccc(NC(=O)N2CCN(c3cc4c(cc3F)c(=O)c(C(=O)O)cn4C3CC3)CC2)cc1 [compound 2, 7-(4-((4-(3-(4-Chlorophenyl)acryloyl)phenyl)carbamoyl)piperazin-1-yl)-1-cyclopropyl-6-fluoro-4-oxo-1,4-dihydroquinoline-3-carboxylic acid]
